The source of these data is ChEMBL document CHEMBL1649061, “Synthesis and pharmacological evaluation of N-(3-(1H-indol-4-yl)-5-(2-methoxyisonicotinoyl)phenyl)methanesulfonamide (LP-261), a potent antimitotic agent” (J Med Chem, 2011).

Each structure is given as a SMILES string. The source made the active and inactive calls. The rule behind the calls is not given here.

The nature of data set [1]: Inhibition of tubulin polymerization after 60 mins.
Data set [2] can be described thus: Displacement of [3H]colchicine from tubulin at 30 uM. (Loss of bound radioactivity is the signal in a displacement assay; it reports binding, not function.)
The test system of data set [3] is HeLa. The data set can be described thus: Cytotoxicity against human HeLa cells after 48 to 72 hrs by […] assay. The class given is functional, cell-based.
Data set [4] can be described thus: Cytotoxicity against human NCI-ADR-RES expressing MDR1 cells after 48 to 72 hrs by […] assay. Format: functional, cell-based.
The subject of data set [5] is Jurkat. The data set can be described thus: Cell cycle arrest in human Jurkat cells assessed as accumulation at G2/M phase after 24 hrs using propidium iodide staining by FACS analysis. A general note: Flow cytometry measures light scatter and fluorescence of single cells or particles in a stream.
The subject of data set [6] is SW-620. The data set can be described thus: Cytotoxicity against human SW620 cells after 48 to 72 hrs by […] assay. Format: functional, cell-based.
The subject of data set [7] is A2780. The data set can be described thus: Cytotoxicity against human A2780 cells after 48 to 72 hrs by […] assay. The class given is functional, cell-based.
Data set [8] relates to MCF7. In words: Cell cycle arrest in human MCF7 cells assessed as accumulation at G2/M phase after 24 hrs using propidium iodide staining by FACS analysis. The class given is functional, cell-based. The note with it: MCF7, 24 h.
Data set [9] deals with U-266. The data set can be described thus: Cell cycle arrest in human U266 cells assessed as accumulation at G2/M phase after 24 hrs using propidium iodide staining by FACS analysis. Format: functional, cell-based. The note with it: U-266, 24 h.
Data set [10] has as its system NCI-H23. The data set can be described thus: Cell cycle arrest in human NCI-H23 cells assessed as accumulation at G2/M phase after 24 hrs using propidium iodide staining by FACS analysis. Conditions: NCI-H23, 24 h. Format: functional, cell-based.
Data set [11] has as its system BXPC-3. In words: Cell cycle arrest in human BxPC3 cells assessed as accumulation at G2/M phase after 24 hrs using propidium iodide staining by FACS analysis. The note with it: BXPC-3, 24 h. Format: functional, cell-based.
Data set [12] deals with PC-3. The data set can be described thus: Cell cycle arrest in human PC3 cells assessed as accumulation at G2/M phase after 24 hrs using propidium iodide staining by FACS analysis. Format: functional, cell-based. Conditions: PC-3, 24 h.
Data set [13] in a line: Oral bioavailability in Sprague-Dawley rat at 20 mg/kg. The class given is ADME, organism-based. Conditions: in vivo.
Data set [14] concerns NCI-H522. In words: Cell cycle arrest in human NCI-H522 cells assessed as accumulation at G2/M phase after 24 hrs using propidium iodide staining by FACS analysis. Format: functional, cell-based. The note with it: NCI-H522, 24 h.
Data set [15] has as its system SW-620. The data set can be described thus: Cell cycle arrest in human SW620 cells assessed as accumulation at G2/M phase after 24 hrs using propidium iodide staining by FACS analysis. The class given is functional, cell-based. The note with it: SW-620, 24 h.

Compound `CC[C@]1(O)C[C@H]2CN(CCc3c([nH]c4ccccc34)[C@@](C(=O)OC)(c3cc4c(cc3OC)N(C=O)[C@H]3[C@@](O)(C(=O)OC)[C@H](OC(C)=O)[C@]5(CC)C=CCN6CC[C@]43[C@@H]65)C2)C1` [VINCRISTINE] displayed an EC50 in [1] of 2500 nM. Also, the inhibition entry in [2] was “inactive”.

As for `COc1ccc(S(=O)(=O)Nc2cccnc2Nc2ccc(O)cc2)cc1` [ABT-751], the half-maximal inhibitory concentration (IC50) in data set [3] turned out to be 270 nM; in [4], 290 nM; in [5], 160 nM; in data set [6] it was 190 nM; in data set [7], 170 nM.

For the compound `COC(=O)Nc1cc(C(=O)c2ccnc(N3CCOCC3)c2)cc(-c2cccc3[nH]ccc23)c1`, the IC50 worked out at 280 nM in data set [3]; 300 nM in [4]; 30 nM in [8]; 120 nM in [9]; 30 nM in data set [10]; 10 nM in [11]. In addition, the IC50 in data set [12] is 20 nM; in data set [6] it was 250 nM; in data set [7] it was 220 nM. Moreover, the EC50 in data set [1] worked out at 4600 nM.

For the compound `CC(=O)O[C@H]1C(=O)[C@@]2(C)[C@H]([C@H](OC(=O)c3ccccc3)[C@]3(O)C[C@H](OC(=O)[C@H](O)[C@@H](NC(=O)c4ccccc4)c4ccccc4)C(C)=C1C3(C)C)[C@]1(OC(C)=O)CO[C@@H]1C[C@@H]2O` [PACLITAXEL], the IC50 was found to be 20 nM in [3], 13000 nM in [4], 30 nM in data set [6] and 10 nM in data set [7].

In turn, `Oc1cc(Nc2cccnc2)cc(-c2cccc3[nH]ccc23)c1` came in with a bioavailability in data set [13] of 24%.

For the compound `CC(=O)Nc1cc(C(=O)c2cc(C)nc(N3CCOCC3)c2)cc(-c2cccc3[nH]ccc23)c1`, the 50% inhibitory concentration (IC50) in data set [3] stood at 490 nM; in data set [4], 1100 nM; in [8], 10 nM; in data set [9], 20 nM; in data set [10] it was 40 nM; in [11], 70 nM. Moreover, the IC50 worked out at 50 nM in [12], 450 nM in data set [6] and 350 nM in data set [7].

Take `COc1cc2c(c(OC)c1OC)-c1ccc(OC)c(=O)cc1[C@@H](NC(C)=O)CC2` [COLCHICINE]: the IC50 in data set [5] stood at 17 nM; in data set [9], 10 nM; in data set [14], 14 nM; in data set [15] it was 14 nM; in data set [10], 13 nM; in data set [11], 16 nM. For the same compound, in data set [12], the IC50 is 33 nM. Further, in data set [1], a half-maximal effect (EC50) was put at 2000 nM. This compound displayed an inhibition in data set [2] of 79%.

The EC50 is the concentration giving half of the maximal effect. Broadly, the inhibition is the percentage by which the read-out fell short of the control. A word on the IC50: it is the point on the concentration scale where inhibition reaches its midpoint. The term bioavailability denotes dose-corrected exposure relative to a reference, in per cent. Higher therefore signals good availability.
